How the values were obtained:
Rattus norvegicus [1] = assay: Ulcerogenic activity against fasted albino Rattus norvegicus (rat) assessed as ulcer index at 100 mg/kg, po administered QD for 3 days measured on day 4; format: toxicity, organism-based; parameters: dose 100 mg/kg, route oral; details: in vivo, 72 h
Ovis aries = species: Ovis aries; assay: Selectivity ratio of IC50 for Ovis aries (sheep) COX2 to IC50 for ovine COX1
Rattus norvegicus [2] = assay: Ulcerogenic activity against fasted albino Rattus norvegicus (rat) assessed as ulcer index at 50 mg/kg, po administered QD for 3 days measured on day 4; format: toxicity, organism-based; parameters: dose 50 mg/kg, route oral; details: in vivo, 72 h
Rattus norvegicus [3] = assay: Anti-inflammatory activity in albino Rattus norvegicus (rat) assessed as inhibition of carrageenan-induced paw edema at 20 mg/kg, po administered 1 hr prior to carrageenan-challenge measured at 3 hr relative to control; format: functional
Rattus norvegicus [4] = assay: Anti-inflammatory activity in albino Rattus norvegicus (rat) assessed as carrageenan-induced paw edema volume at 20 mg/kg, po administered 1 hr prior to carrageenan-challenge measured at 1 hr (reference value: 3.75 +/- 0.01 ml); format: functional
Rattus norvegicus [5] = assay: Anti-inflammatory activity in albino Rattus norvegicus (rat) assessed as carrageenan-induced paw edema volume at 20 mg/kg, po administered 1 hr prior to carrageenan-challenge measured at 2 hr (reference value: 4.25 +/- 0.07 ml); format: functional
Rattus norvegicus [6] = assay: Anti-inflammatory activity in albino Rattus norvegicus (rat) assessed as carrageenan-induced paw edema volume at 20 mg/kg, po administered 1 hr prior to carrageenan-challenge measured at 0.5 hr (reference value: 2.5 +/- 0.02 ml); format: functional

With `COc1ccc(-c2nn(-c3ccccc3)cc2-c2nn[nH]n2)cc1` as the molecule, how does the UI (Rattus norvegicus [1]) read?
Its UI is 14.22.

`Clc1ccc(-c2nn(-c3ccccc3)cc2-c2nn[nH]n2)cc1` was tested. Which UI (Rattus norvegicus [1]) did it give?
The UI was 13.9.

`Cc1ccc(-c2cc(C(F)(F)F)nn2-c2ccc(S(N)(=O)=O)cc2)cc1` [CELECOXIB] was tested. Which Ratio IC50 (Ovis aries) did it give?
The Ratio IC50 was 0.02.

And the UI (Rattus norvegicus [2])?
Its UI is 12.51.

With `O=C([O-])Cc1ccccc1Nc1c(Cl)cccc1Cl.[Na+]` [DICLOFENAC SODIUM] as the molecule, how does the inhibition in vivo at 20 mg/kg (Rattus norvegicus [3]) read?
Its inhibition in vivo at 20 mg/kg is 88%.

What about the Activity (Rattus norvegicus [4]) of the same molecule?
Its Activity is 1.15 mL.

And the UI (Rattus norvegicus [2])?
The UI was 17.02.

What about the Activity (Rattus norvegicus [5]) of the same molecule?
Its Activity is 0.25 mL.

And the Activity (Rattus norvegicus [6])?
Its Activity is 1.67 mL.
